Results on twelve molecules are retold here after ChEMBL document CHEMBL5356939, “Research progress of anticancer drugs targeting CDK12” (RSC Med Chem, 2023).

Test [1] has as its target T1, Cyclin-dependent kinase 9 (Homo sapiens, UniProt P50750). The test is described as follows: Inhibition of recombinant human CDK9 expressed in baculovirus infected Insect cell measured after 30 mins by scintillation counter analysis.
Test [2] addresses T2, Protein cereblon/Cyclin-dependent kinase 12 (Homo sapiens, UniProt Q96SW2+Q9NYV4). The test is described as follows: Protac activity at CRBN/CDK12 in human MOLT-4 cells assessed as […] by Westernblot analysis. Format: cell-based.
In test [3] the target is T3, Cyclin-dependent kinase 12 (Homo sapiens, UniProt Q9NYV4). The test is described as follows: Inhibition of GST-tagged recombinant human CDK12 (696 to 1082 residues) expressed in Insect cell in presence of ATP by Km ATP assay.
T3 sequence (Q9NYV4 whole entry, the tested form may be a part): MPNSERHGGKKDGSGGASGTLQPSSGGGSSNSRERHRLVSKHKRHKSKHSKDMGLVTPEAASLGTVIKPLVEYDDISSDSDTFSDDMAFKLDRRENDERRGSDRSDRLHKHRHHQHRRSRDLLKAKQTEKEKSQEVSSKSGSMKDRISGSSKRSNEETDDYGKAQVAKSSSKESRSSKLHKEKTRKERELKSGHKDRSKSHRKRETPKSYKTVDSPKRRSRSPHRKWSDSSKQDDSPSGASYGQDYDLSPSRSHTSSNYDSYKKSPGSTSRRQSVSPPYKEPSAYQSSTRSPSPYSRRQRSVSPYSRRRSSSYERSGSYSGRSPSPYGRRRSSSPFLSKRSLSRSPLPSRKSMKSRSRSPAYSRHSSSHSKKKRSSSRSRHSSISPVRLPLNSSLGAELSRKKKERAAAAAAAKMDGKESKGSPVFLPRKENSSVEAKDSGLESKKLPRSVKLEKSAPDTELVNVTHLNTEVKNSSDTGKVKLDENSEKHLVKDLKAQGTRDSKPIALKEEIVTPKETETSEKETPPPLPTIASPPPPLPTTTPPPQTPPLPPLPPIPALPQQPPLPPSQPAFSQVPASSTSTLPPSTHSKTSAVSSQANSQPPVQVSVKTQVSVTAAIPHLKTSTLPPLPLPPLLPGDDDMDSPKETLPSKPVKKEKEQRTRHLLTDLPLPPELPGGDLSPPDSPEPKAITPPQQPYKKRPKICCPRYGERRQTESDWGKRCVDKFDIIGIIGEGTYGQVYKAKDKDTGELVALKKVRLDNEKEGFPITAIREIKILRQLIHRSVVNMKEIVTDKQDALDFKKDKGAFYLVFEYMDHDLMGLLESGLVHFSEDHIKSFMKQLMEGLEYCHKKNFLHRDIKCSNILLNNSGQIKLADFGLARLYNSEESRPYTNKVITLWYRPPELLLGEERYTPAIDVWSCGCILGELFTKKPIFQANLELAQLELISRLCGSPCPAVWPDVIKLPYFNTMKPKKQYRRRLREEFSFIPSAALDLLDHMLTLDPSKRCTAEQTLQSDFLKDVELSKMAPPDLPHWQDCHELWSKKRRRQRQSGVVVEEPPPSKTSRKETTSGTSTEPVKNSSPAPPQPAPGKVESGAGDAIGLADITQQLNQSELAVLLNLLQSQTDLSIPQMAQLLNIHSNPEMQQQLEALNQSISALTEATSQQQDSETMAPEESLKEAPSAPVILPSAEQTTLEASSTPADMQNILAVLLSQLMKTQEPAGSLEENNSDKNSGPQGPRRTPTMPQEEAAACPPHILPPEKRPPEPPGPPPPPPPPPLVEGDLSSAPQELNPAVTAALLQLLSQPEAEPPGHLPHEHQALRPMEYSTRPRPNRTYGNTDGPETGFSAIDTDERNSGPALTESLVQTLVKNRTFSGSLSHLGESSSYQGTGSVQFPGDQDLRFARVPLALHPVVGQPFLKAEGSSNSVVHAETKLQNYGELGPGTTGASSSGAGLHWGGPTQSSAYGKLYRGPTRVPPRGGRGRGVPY
Test [4] concerns the target T4, Cyclin-dependent kinase 7 (Homo sapiens, UniProt P50613). The test is described as follows: Inhibition of full length recombinant human CDK7 expressed in Insect cell in presence of ATP.
Test [5] concerns the target Cyclin-dependent kinase 1 (Homo sapiens, UniProt P06493). The test is described as follows: Inhibition of full length recombinant human CDK1 expressed in Insect cell in presence of ATP.
In test [6] the target is T1, Cyclin-dependent kinase 9.
Description: Binding affinity to CDK9 (unknown origin) assessed as dissociation constant
For test [7], the target named is Cyclin-dependent kinase 6 (Homo sapiens, UniProt Q00534).
Sequence of Cyclin-dependent kinase 6 (Q00534 whole entry): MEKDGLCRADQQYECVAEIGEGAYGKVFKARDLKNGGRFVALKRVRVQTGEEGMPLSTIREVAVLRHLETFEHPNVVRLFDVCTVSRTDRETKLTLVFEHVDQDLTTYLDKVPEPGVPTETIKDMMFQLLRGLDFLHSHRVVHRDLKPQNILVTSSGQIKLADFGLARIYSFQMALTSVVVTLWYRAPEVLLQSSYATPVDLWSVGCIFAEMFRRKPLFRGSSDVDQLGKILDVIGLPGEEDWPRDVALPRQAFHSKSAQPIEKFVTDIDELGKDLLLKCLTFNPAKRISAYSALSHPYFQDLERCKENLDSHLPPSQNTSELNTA
Description: Binding affinity to CDK6 (unknown origin) assessed as dissociation constant
The subject of the next test is Lung cancer cell line. Kind of test: Antiproliferative activity against human Lung cancer cell line assessed as […] measured after 72 hrs. Type of test: functional, cell-based.
Test [8] is described as follows: Antiproliferative activity against human Neuroblastoma cell assessed as […] measured after 72 hrs. Type of test: functional, cell-based.
In test [9] the target is T3, Cyclin-dependent kinase 12. The test is described as follows: Inhibition of GST-tagged recombinant human CDK12 (696 to 1082 residues) expressed in Insect cell in presence of ATP by high ATP assay.
The target of test [10] is Cyclin-dependent kinase 2 (Homo sapiens, UniProt P24941). The test is described as follows: Inhibition of full length recombinant human CDK2 expressed in Insect cell in presence of ATP.
In test [11] the target is T1, Cyclin-dependent kinase 9. The test is described as follows: Inhibition of full length recombinant human CDK9 expressed in Insect cell in presence of ATP.
The target of test [12] is T2, Protein cereblon/Cyclin-dependent kinase 12. Kind of test: Protac activity at CRBN/CDK12 in human Jurkat cells assessed as […] measured after 6 hrs by Westernblot analysis. Format: cell-based.
The target in test [13] is Cyclin-dependent kinase 12 (Mus musculus, UniProt Q14AX6). Kind of test: Inhibition of CDK12 in mouse OV2944-HM-1 cells by Westernblot analysis. Format: cell-based.
Sequence of Cyclin-dependent kinase 12 (Mus musculus, UniProt Q14AX6) (Q14AX6 whole entry): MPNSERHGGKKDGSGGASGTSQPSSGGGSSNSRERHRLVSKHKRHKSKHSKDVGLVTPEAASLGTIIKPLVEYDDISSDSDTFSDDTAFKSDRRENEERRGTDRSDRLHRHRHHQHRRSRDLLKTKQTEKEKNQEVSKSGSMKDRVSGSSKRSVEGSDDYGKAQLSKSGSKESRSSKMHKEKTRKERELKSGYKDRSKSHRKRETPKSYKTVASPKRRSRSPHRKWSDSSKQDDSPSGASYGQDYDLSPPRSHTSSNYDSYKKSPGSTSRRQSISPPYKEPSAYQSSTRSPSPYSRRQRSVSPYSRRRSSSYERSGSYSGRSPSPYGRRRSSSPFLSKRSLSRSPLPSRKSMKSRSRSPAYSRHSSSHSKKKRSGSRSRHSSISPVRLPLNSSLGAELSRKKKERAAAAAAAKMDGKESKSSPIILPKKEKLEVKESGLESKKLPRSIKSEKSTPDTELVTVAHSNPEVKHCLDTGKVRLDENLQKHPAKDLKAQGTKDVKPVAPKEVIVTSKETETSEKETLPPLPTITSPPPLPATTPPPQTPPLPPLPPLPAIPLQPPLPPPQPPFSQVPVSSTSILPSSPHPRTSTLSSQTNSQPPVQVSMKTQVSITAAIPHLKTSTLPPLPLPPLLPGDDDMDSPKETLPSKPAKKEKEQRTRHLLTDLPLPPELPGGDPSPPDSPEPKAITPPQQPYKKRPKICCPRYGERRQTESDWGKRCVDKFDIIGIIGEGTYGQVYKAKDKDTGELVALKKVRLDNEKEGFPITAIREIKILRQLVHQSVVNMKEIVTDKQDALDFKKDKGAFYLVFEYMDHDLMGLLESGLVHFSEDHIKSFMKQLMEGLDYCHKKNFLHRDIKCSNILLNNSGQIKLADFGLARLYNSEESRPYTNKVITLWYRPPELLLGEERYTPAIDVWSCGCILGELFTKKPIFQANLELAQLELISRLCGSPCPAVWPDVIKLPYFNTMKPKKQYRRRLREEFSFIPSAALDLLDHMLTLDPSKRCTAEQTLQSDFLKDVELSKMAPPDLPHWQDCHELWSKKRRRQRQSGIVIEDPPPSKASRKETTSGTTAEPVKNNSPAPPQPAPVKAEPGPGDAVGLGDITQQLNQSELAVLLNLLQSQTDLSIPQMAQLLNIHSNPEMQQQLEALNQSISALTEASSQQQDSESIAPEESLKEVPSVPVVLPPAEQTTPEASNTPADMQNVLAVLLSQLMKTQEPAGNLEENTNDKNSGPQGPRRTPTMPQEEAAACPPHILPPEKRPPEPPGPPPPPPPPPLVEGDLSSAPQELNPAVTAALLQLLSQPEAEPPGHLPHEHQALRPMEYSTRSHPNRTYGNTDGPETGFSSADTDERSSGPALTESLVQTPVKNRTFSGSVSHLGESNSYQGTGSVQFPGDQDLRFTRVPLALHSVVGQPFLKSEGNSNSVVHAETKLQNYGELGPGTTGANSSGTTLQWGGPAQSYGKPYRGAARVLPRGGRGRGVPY
Test [14] concerns the target T3, Cyclin-dependent kinase 12. Kind of test: Inhibition of CDK12 (unknown origin).
Test [15] deals with Cyclin-dependent kinase 13 (Homo sapiens, UniProt Q14004). Kind of test: Inhibition of CDK13 (unknown origin).
Test [16] concerns the target T4, Cyclin-dependent kinase 7. The test is described as follows: Inhibition of CDK7 (unknown origin).

T4 sequence (P50613 whole entry): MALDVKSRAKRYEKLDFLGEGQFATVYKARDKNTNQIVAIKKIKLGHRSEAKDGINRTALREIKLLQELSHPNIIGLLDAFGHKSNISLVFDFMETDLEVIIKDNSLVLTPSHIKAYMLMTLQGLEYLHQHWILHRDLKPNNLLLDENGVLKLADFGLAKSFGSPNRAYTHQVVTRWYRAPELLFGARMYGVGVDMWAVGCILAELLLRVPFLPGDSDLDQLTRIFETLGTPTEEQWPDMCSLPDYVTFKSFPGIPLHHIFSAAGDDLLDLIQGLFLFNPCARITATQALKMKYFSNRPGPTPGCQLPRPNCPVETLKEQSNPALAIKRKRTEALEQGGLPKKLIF
T2 sequence (Q9NYV4 whole entry, the tested form may be a part): as the sequence (Q9NYV4 whole entry, the tested form may be a part) above
T2 sequence (Q96SW2 whole entry, the tested form may be a part): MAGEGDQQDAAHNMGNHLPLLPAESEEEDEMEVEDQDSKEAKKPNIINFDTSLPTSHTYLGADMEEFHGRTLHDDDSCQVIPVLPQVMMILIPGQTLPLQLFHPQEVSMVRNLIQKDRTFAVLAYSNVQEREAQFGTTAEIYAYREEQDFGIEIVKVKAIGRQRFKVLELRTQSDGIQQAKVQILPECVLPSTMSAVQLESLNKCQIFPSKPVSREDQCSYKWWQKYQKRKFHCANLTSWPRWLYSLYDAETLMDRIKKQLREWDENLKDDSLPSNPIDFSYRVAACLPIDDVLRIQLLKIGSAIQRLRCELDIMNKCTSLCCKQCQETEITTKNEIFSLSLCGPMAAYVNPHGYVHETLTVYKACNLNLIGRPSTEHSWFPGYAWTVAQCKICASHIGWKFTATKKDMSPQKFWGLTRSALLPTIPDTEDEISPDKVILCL
T1 sequence (P50750 whole entry): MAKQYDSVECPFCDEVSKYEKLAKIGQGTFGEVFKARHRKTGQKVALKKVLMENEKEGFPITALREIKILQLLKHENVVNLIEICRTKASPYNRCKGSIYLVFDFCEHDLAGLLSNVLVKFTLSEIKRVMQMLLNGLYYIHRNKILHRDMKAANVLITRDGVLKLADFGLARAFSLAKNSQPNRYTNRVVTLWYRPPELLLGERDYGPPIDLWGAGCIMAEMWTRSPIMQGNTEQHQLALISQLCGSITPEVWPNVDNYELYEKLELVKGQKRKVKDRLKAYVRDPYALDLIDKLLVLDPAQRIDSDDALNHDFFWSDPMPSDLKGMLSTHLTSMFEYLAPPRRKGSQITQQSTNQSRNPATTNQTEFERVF
Sequence of Cyclin-dependent kinase 1 (P06493 whole entry): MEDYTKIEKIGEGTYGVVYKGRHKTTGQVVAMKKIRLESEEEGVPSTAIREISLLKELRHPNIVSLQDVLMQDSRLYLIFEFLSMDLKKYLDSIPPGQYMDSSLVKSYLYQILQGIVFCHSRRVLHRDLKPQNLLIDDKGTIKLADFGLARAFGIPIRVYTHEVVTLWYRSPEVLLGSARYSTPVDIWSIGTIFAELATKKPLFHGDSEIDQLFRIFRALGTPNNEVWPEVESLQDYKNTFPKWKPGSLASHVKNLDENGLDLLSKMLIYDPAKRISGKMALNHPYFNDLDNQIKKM

What is called IC50 is the concentration that gives 50% inhibition. With `CN(C)C/C=C/C(=O)Nc1ccc(C(=O)N2CCC[C@@H](Nc3ncc(Cl)c(-c4c[nH]c5ccccc45)n3)C2)cc1`, the IC50 in test [1] is 10500 nM. Regarding `Clc1cnc(N[C@H]2CCCNC2)nc1-c1c[nH]c2ccccc12`, in test [2], the IC50 was 107 nM.

Consider `CCn1cnc2c(NCc3nc4ccc(F)c(F)c4[nH]3)nc(N3CCCC[C@H]3CCO)nc21`, for which the IC50 is 14 nM in test [3], above 30000 nM in [4] and 28600 nM in test [5]. In general, Kd refers to a measure of binding affinity in units of concentration. For the molecule `Cn1cc(-n2cnc3c(NCc4nc5cc(Cl)c(Cl)cc5[nH]4)nc(N4CCOCC4)nc32)cn1`, the Kd in [6] was above 10000 nM; in test [7] it was 5100 nM. Turning to `CC(C)n1cnc2c(NCc3nc4ccc(F)c(F)c4[nH]3)nc(N3CCCC[C@H]3CCO)nc21`, in test [3], the IC50 stood at 31 nM. As to `C=CC(=O)Nc1cccc(Nc2nc(N3CCCC[C@H]3CCO)nc3c2ncn3CC)c1`, the IC50 (in the test on Lung cancer cell line; in [8]) was 8 nM throughout.

For the molecule `CCc1cnn2c(NCc3nc4ccc(F)c(F)c4[nH]3)cc(N3CCCC[C@H]3CCO)nc12`, the IC50 in test [9] was found to be 47 nM; in test [3] it was 22 nM; in [10], 40 nM; in test [4], 21200 nM; in [5], 3410 nM; in test [11], 240 nM. On to `CC(C)S(=O)(=O)c1ccccc1Nc1nc(N[C@H]2CCCN(CCCCCCCNC(=O)COc3cccc4c3C(=O)N(C3CCC(=O)NC3=O)C4=O)C2)ncc1Cl` (stereo partly drawn), for which the IC50 in test [12] was 6 nM. `O=C(COc1cccc2c1C(=O)N(C1CCC(=O)NC1=O)C2=O)NCCCCCCCN1CCC[C@H](Nc2ncc(Cl)c(-c3c[nH]c4ccccc34)n2)C1` (stereo partly drawn): the IC50 in test [2] is 9 nM. What is called EC50 is the concentration that produces a half-maximal response. Low readings indicate higher potency in that assay, high ones lower potency in that assay. Turning to `O=C(CN1CCC[C@@H](Nc2ncc(Cl)c(-c3c[nH]c4ccccc34)n2)C1)Nc1ccc([As](O)O)cc1`, the EC50 in [13] was 35 nM. With `CN(C)C/C=C/C(O)Nc1ccc(C(=O)Nc2cccc(Nc3ncc(Cl)c(-c4c[nH]c5ccccc45)n3)c2)cc1` (stereo not drawn), the IC50 in test [14] is 893 nM; in [15] it was 628 nM; in test [16], 238 nM. The molecule `O=C(CN1CCC[C@@H](Nc2ncc(Cl)c(-c3c[nH]c4ccccc34)n2)C1)Nc1ccc([As]2SCCS2)cc1` registered an EC50 in test [13] of 32 nM.
